Test results: PubChem BioAssay (NCI)
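Five concentrations, 48 hours, 96-well plates. GI50: concentration for 50% inhibition of growth. TGI: concentration producing complete growth inhibition.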

What was measured:
Experiment in all cases: NCI-60 cell line screen, 48 h
SK-MEL-5 melanoma = tested on: SK-MEL-5 melanoma
NCI-H226 lung = tested on: NCI-H226 lung
786-0 renal = tested on: 786-0 renal
MDA-MB-231 breast = tested on: MDA-MB-231 breast
UACC-62 melanoma = tested on: UACC-62 melanoma
MOLT-4 leukemia = tested on: MOLT-4 leukemia
RPMI-8226 leukemia = tested on: RPMI-8226 leukemia
T-47D breast = tested on: T-47D breast
SW-620 colon = tested on: SW-620 colon
OVCAR-8 ovarian = tested on: OVCAR-8 ovarian
U251 CNS = tested on: U251 CNS
SNB-75 CNS = tested on: SNB-75 CNS
OVCAR-5 ovarian = tested on: OVCAR-5 ovarian
UACC-257 melanoma = tested on: UACC-257 melanoma
SN12C renal = tested on: SN12C renal
SK-MEL-2 melanoma = tested on: SK-MEL-2 melanoma
MALME-3M melanoma = tested on: MALME-3M melanoma
HOP-62 NSCLC = tested on: HOP-62 NSCLC
K-562 leukemia = tested on: K-562 leukemia
SK-MEL-28 melanoma = tested on: SK-MEL-28 melanoma
PC-3 prostate = tested on: PC-3 prostate
A549 NSCLC = tested on: A549 NSCLC
HCT-116 colon = tested on: HCT-116 colon
EKVX NSCLC = tested on: EKVX NSCLC
DU-145 prostate = tested on: DU-145 prostate
OVCAR-3 ovarian = tested on: OVCAR-3 ovarian
HCT-15 colon = tested on: HCT-15 colon
MCF7 breast = tested on: MCF7 breast
ACHN renal = tested on: ACHN renal
NCI-H23 lung = tested on: NCI-H23 lung
SNB-19 CNS = tested on: SNB-19 CNS
SK-OV-3 ovarian = tested on: SK-OV-3 ovarian
BT-549 breast = tested on: BT-549 breast
HT29 colon = tested on: HT29 colon
SF-539 CNS = tested on: SF-539 CNS
UO-31 renal = tested on: UO-31 renal
RXF 393 renal = tested on: RXF 393 renal
COLO 205 colon = tested on: COLO 205 colon
HL-60(TB) leukemia = tested on: HL-60(TB) leukemia
SF-295 CNS = tested on: SF-295 CNS
HS 578T breast = tested on: HS 578T breast
HOP-92 NSCLC = tested on: HOP-92 NSCLC
NCI-H460 lung = tested on: NCI-H460 lung
LOX IMVI melanoma = tested on: LOX IMVI melanoma
IGROV1 ovarian = tested on: IGROV1 ovarian
M14 melanoma = tested on: M14 melanoma
SF-268 CNS = tested on: SF-268 CNS
A498 renal = tested on: A498 renal
TK-10 renal = tested on: TK-10 renal
SR leukemia = tested on: SR leukemia
NCI/ADR-RES ovarian = tested on: NCI/ADR-RES ovarian
NCI-H522 lung = tested on: NCI-H522 lung
CAKI-1 renal = tested on: CAKI-1 renal
CCRF-CEM leukemia = tested on: CCRF-CEM leukemia
HCC-2998 colon = tested on: HCC-2998 colon
OVCAR-4 ovarian = tested on: OVCAR-4 ovarian
MDA-MB-435 = tested on: MDA-MB-435
KM12 colon = tested on: KM12 colon

`CC(=O)O[C@H]1/C(=C/c2ccc(N(C)C)cc2)C[C@H]2[C@@H]3CC=C4C[C@@H](N5CCCC5)CC[C@]4(C)[C@H]3CC[C@]12C` was tested. Which TGI (SK-MEL-5 melanoma) did it give?
Its TGI is over 100000 nM.

And the TGI (NCI-H226 lung)?
The TGI was over 100 µM.

And the TGI (786-0 renal)?
The TGI was over 100 µM.

And the TGI (MDA-MB-231 breast)?
The TGI was over 100 µM.

And the TGI (UACC-62 melanoma)?
The TGI was over 100000 nM.

What about the TGI (MOLT-4 leukemia) of the same compound?
The TGI was over 100 µM.

What about the TGI (RPMI-8226 leukemia) of the same compound?
Its TGI is over 100 µM.

And the TGI (T-47D breast)?
Its TGI is over 100 µM.

And the TGI (SW-620 colon)?
Its TGI is over 100 µM.

And the TGI (OVCAR-8 ovarian)?
Its TGI is over 100 µM.

And the TGI (U251 CNS)?
Its TGI is over 100 µM.

What about the TGI (SNB-75 CNS) of the same compound?
Its TGI is over 100 µM.

And the TGI (OVCAR-5 ovarian)?
Its TGI is over 100 µM.

And the TGI (UACC-257 melanoma)?
The TGI was over 100 µM.

And the TGI (SN12C renal)?
The TGI was over 100 µM.

What about the TGI (SK-MEL-2 melanoma) of the same compound?
The TGI was over 100 µM.

What about the TGI (MALME-3M melanoma) of the same compound?
The TGI was over 100 µM.

And the TGI (HOP-62 NSCLC)?
Its TGI is over 100 µM.

What about the TGI (K-562 leukemia) of the same compound?
The TGI was over 100 µM.

What about the TGI (SK-MEL-28 melanoma) of the same compound?
Its TGI is over 100000 nM.

And the TGI (PC-3 prostate)?
Its TGI is over 100 µM.

What about the TGI (A549 NSCLC) of the same compound?
The TGI was over 100 µM.

And the TGI (HCT-116 colon)?
Its TGI is over 100000 nM.

What about the TGI (EKVX NSCLC) of the same compound?
The TGI was over 100 µM.

And the TGI (DU-145 prostate)?
The TGI was over 100 µM.

What about the TGI (OVCAR-3 ovarian) of the same compound?
The TGI was over 100 µM.

And the TGI (HCT-15 colon)?
Its TGI is over 100000 nM.

And the TGI (MCF7 breast)?
The TGI was over 100 µM.

And the TGI (ACHN renal)?
Its TGI is over 100000 nM.

What about the TGI (NCI-H23 lung) of the same compound?
Its TGI is over 100 µM.

What about the TGI (SNB-19 CNS) of the same compound?
The TGI was over 100 µM.

And the TGI (SK-OV-3 ovarian)?
Its TGI is over 100 µM.

And the TGI (BT-549 breast)?
The TGI was over 100 µM.

What about the TGI (HT29 colon) of the same compound?
Its TGI is over 100 µM.

What about the TGI (SF-539 CNS) of the same compound?
The TGI was over 100 µM.

And the TGI (UO-31 renal)?
Its TGI is over 100 µM.

What about the TGI (RXF 393 renal) of the same compound?
Its TGI is over 100000 nM.

What about the TGI (COLO 205 colon) of the same compound?
The TGI was over 100 µM.

What about the TGI (HL-60(TB) leukemia) of the same compound?
The TGI was over 100 µM.

And the TGI (SF-295 CNS)?
Its TGI is over 100 µM.

What about the TGI (HS 578T breast) of the same compound?
Its TGI is over 100 µM.

And the TGI (HOP-92 NSCLC)?
The TGI was over 100 µM.

What about the TGI (NCI-H460 lung) of the same compound?
Its TGI is over 100 µM.

And the TGI (LOX IMVI melanoma)?
The TGI was over 100000 nM.

What about the TGI (IGROV1 ovarian) of the same compound?
The TGI was over 100 µM.

And the TGI (M14 melanoma)?
Its TGI is over 100000 nM.

What about the TGI (SF-268 CNS) of the same compound?
The TGI was over 100 µM.

What about the TGI (A498 renal) of the same compound?
The TGI was over 100 µM.

And the TGI (TK-10 renal)?
Its TGI is over 100 µM.

And the TGI (SR leukemia)?
Its TGI is over 100 µM.

What about the TGI (NCI/ADR-RES ovarian) of the same compound?
The TGI was over 100 µM.

Which results are given for `O=C(/C=C/c1ccc([N+](=O)[O-])o1)NNC(=O)c1cc2ccccc2cc1O`?
GI50 (SK-MEL-5 melanoma): 656 nM; TGI (SK-MEL-5 melanoma): 2040 nM; GI50 (NCI-H226 lung): 3.51 µM; TGI (NCI-H226 lung): 34.1 µM; GI50 (786-0 renal): 1540 nM; TGI (786-0 renal): 3.47 µM; GI50 (MDA-MB-231 breast): 2430 nM; TGI (MDA-MB-231 breast): > 100 µM; GI50 (UACC-62 melanoma): 694 nM; TGI (UACC-62 melanoma): 2260 nM; GI50 (MOLT-4 leukemia): 970 nM; TGI (MOLT-4 leukemia): > 100 µM; GI50 (RPMI-8226 leukemia): 2300 nM; TGI (RPMI-8226 leukemia): > 100 µM; GI50 (T-47D breast): 1510 nM; TGI (T-47D breast): 5.77 µM; GI50 (SW-620 colon): 2030 nM; TGI (SW-620 colon): > 89 µM; GI50 (NCI-H522 lung): 565 nM; TGI (NCI-H522 lung): 2030 nM; GI50 (OVCAR-8 ovarian): 1110 nM; TGI (OVCAR-8 ovarian): 20.1 µM; GI50 (U251 CNS): 2170 nM; TGI (U251 CNS): > 26.1 µM; GI50 (SNB-75 CNS): 1720 nM; TGI (SNB-75 CNS): > 100 µM; GI50 (OVCAR-5 ovarian): 13 µM; TGI (OVCAR-5 ovarian): > 100 µM; GI50 (UACC-257 melanoma): 906 nM; TGI (UACC-257 melanoma): 3.92 µM; GI50 (SN12C renal): 1490 nM; TGI (SN12C renal): > 100 µM; GI50 (SK-MEL-2 melanoma): 1440 nM; TGI (SK-MEL-2 melanoma): 3.97 µM; GI50 (MALME-3M melanoma): 1340 nM; TGI (MALME-3M melanoma): 4.91 µM; GI50 (HOP-62 NSCLC): 3.67 µM; TGI (HOP-62 NSCLC): > 100 µM; GI50 (K-562 leukemia): 1410 nM; TGI (K-562 leukemia): > 100 µM; GI50 (SK-MEL-28 melanoma): 596 nM; TGI (SK-MEL-28 melanoma): 2210 nM; GI50 (PC-3 prostate): 3.36 µM; TGI (PC-3 prostate): > 100 µM; GI50 (A549 NSCLC): 3.95 µM; TGI (A549 NSCLC): > 100 µM; GI50 (CAKI-1 renal): 1040 nM; GI50 (HCT-116 colon): 557 nM; TGI (HCT-116 colon): 1720 nM; GI50 (EKVX NSCLC): 7.2 µM; TGI (EKVX NSCLC): > 100 µM; GI50 (DU-145 prostate): 998 nM; TGI (DU-145 prostate): 4.3 µM; GI50 (OVCAR-3 ovarian): 967 nM; TGI (OVCAR-3 ovarian): > 21 µM; GI50 (CCRF-CEM leukemia): 441 nM; TGI (CCRF-CEM leukemia): > 100 µM; GI50 (HCT-15 colon): 714 nM; TGI (HCT-15 colon): 2910 nM; GI50 (MCF7 breast): 824 nM; TGI (MCF7 breast): > 100 µM; GI50 (ACHN renal): 688 nM; TGI (ACHN renal): 2240 nM; GI50 (NCI-H23 lung): 1050 nM; TGI (NCI-H23 lung): 5.03 µM; GI50 (SNB-19 CNS): 4.6 µM; TGI (SNB-19 CNS): > 100 µM; GI50 (SK-OV-3 ovarian): 4.23 µM; TGI (SK-OV-3 ovarian): > 100 µM; GI50 (BT-549 breast): 1490 nM; TGI (BT-549 breast): 5.74 µM; GI50 (HT29 colon): 2880 nM; TGI (HT29 colon): > 100 µM; GI50 (SF-539 CNS): 2060 nM; TGI (SF-539 CNS): 7.52 µM; GI50 (HCC-2998 colon): 1320 nM; TGI (HCC-2998 colon): 3.21 µM; GI50 (UO-31 renal): 1200 nM; TGI (UO-31 renal): 3.78 µM; GI50 (RXF 393 renal): 236 nM; TGI (RXF 393 renal): 940 nM; GI50 (COLO 205 colon): 1920 nM; TGI (COLO 205 colon): 6.54 µM; GI50 (HL-60(TB) leukemia): 962 nM; TGI (HL-60(TB) leukemia): > 100 µM; GI50 (SF-295 CNS): 7.62 µM; TGI (SF-295 CNS): > 100 µM; GI50 (HS 578T breast): 6.21 µM; TGI (HS 578T breast): > 100 µM; GI50 (HOP-92 NSCLC): 2750 nM; TGI (HOP-92 NSCLC): > 100 µM; GI50 (NCI-H460 lung): 2820 nM; TGI (NCI-H460 lung): > 100 µM; GI50 (LOX IMVI melanoma): 395 nM; TGI (LOX IMVI melanoma): 1980 nM; GI50 (IGROV1 ovarian): 3.07 µM; TGI (IGROV1 ovarian): > 100 µM; GI50 (M14 melanoma): 738 nM; TGI (M14 melanoma): 2290 nM; GI50 (OVCAR-4 ovarian): 1260 nM; TGI (OVCAR-4 ovarian): > 100 µM; GI50 (SF-268 CNS): 1290 nM; TGI (SF-268 CNS): > 100 µM; GI50 (MDA-MB-435): 644 nM; GI50 (KM12 colon): 2180 nM; TGI (KM12 colon): > 23 µM; GI50 (A498 renal): 2110 nM; TGI (A498 renal): 6.17 µM; GI50 (TK-10 renal): 2900 nM; TGI (TK-10 renal): > 100 µM; GI50 (NCI/ADR-RES ovarian): 1480 nM; TGI (NCI/ADR-RES ovarian): 10.6 µM
